Reference: PubChem BioAssay (NCI)
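Protocol summary: plate cells (96-well), add compound at 5 concentrations, incubate 48 h, interpolate endpoints linearly. TGI: concentration producing complete growth inhibition.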

What was measured:
Experiment in all cases: NCI tumour cell line growth inhibition, 48 h
ACHN renal = tested on: ACHN renal
CCRF-CEM leukemia = tested on: CCRF-CEM leukemia
MALME-3M melanoma = tested on: MALME-3M melanoma
RPMI-8226 leukemia = tested on: RPMI-8226 leukemia
SF-268 CNS = tested on: SF-268 CNS
SF-539 CNS = tested on: SF-539 CNS
SN12C renal = tested on: SN12C renal
SNB-19 CNS = tested on: SNB-19 CNS
UACC-257 melanoma = tested on: UACC-257 melanoma
RXF 393 renal = tested on: RXF 393 renal
SNB-75 CNS = tested on: SNB-75 CNS

| SMILES | TGI (ACHN renal) | TGI (CCRF-CEM leukemia) | TGI (MALME-3M melanoma) | TGI (RPMI-8226 leukemia) | TGI (SF-268 CNS) | TGI (SF-539 CNS) | TGI (SN12C renal) | TGI (SNB-19 CNS) | TGI (UACC-257 melanoma) | TGI (RXF 393 renal) | TGI (SNB-75 CNS) |
| --- | --- | --- | --- | --- | --- | --- | --- | --- | --- | --- | --- |
| O=C(O)Cc1cccc2c(=O)c3ccccc3oc12 | > 100 µM | > 100 µM | > 100 µM | > 100 µM | > 100 µM | > 100 µM | > 100 µM | > 100 µM | > 100 µM | – | – |
| O=C(O)c1ccc([N+](=O)[O-])c2cc3cnccc3nc12 | – | 9.03 µM | 42.2 µM | > 100 µM | – | – | 32.8 µM | – | – | 74.1 µM | 34.2 µM |
| CCOC(=O)N/N=C(/N)c1cccc([N+](=O)[O-])c1 | > 100 µM | > 100 µM | > 100 µM | – | > 100 µM | > 100 µM | > 100 µM | > 100 µM | > 100 µM | > 100 µM | > 100 µM |
| COC1=C(OC)C(=O)C(Cc2c(C)nc3sc(C)cn23)=C(C)C1=O | 30 µM | 53.7 µM | 37.3 µM | 39.2 µM | 35.7 µM | 32.4 µM | 31 µM | 36.5 µM | 26.1 µM | 42.4 µM | – |
| COc1cccc(-c2ccc3c4c2O[C@H]2C(=O)CC[C@@]5(O)[C@@H](C3)N(CC3CC3)CC[C@]425)c1 | 35.9 µM | 27.9 µM | 36.4 µM | 30.9 µM | 40.3 µM | 29 µM | 41.4 µM | 42.2 µM | 43.2 µM | 21.8 µM | – |
| O=C1/C(=C/c2ccc([N+](=O)[O-])cc2)C(=O)N(c2ccccc2)C1c1ccccc1 (stereo unspecified) | > 10 µM | > 10 µM | – | > 10 µM | > 10 µM | > 10 µM | > 10 µM | > 10 µM | > 10 µM | > 10 µM | > 10 µM |
| NC(N)=NCCC[C@H](N)C(=O)NCC(=O)N[C@@H](CC(=O)O)c1ncc(NC(=O)C(F)(F)F)o1 | > 25 µM | > 25 µM | > 25 µM | – | > 25 µM | > 25 µM | – | – | > 25 µM | > 25 µM | > 25 µM |
| CC1OC(OC2C(O[C@H]3CC[C@@]4(C)C(=CC[C@H]5[C@@H]6C[C@@H]7O[C@]8(CC[C@@H](CO)CO8)[C@@H](C)[C@@H]7[C@@]6(C)CC[C@@H]54)C3)OC(CO)C(O)C2OC2OC(CO)C(O)C(O)C2O)C(O)C(O)C1O (stereo partly specified) | 3.25 µM | – | 3.34 µM | 3.92 µM | 3.54 µM | 3.07 µM | 3.21 µM | 3.96 µM | 3.24 µM | 3.01 µM | 3.06 µM |
| Oc1ccc(-c2nc(-c3cccnc3)c(-c3ccc(Cl)cc3)[nH]2)cc1 | 27.6 µM | 17.9 µM | 26.8 µM | 30 µM | 29.6 µM | – | 32.6 µM | 31.2 µM | 29.6 µM | 26.5 µM | 19.9 µM |
| CN1CCC(O)(C(C)(C)C)CC1 | > 100 µM | > 100 µM | > 100 µM | > 100 µM | > 100 µM | – | > 100 µM | > 100 µM | > 100 µM | > 100 µM | > 100 µM |
| O=C(c1ccc(N=Cc2ccccc2O)cc1)c1ccc(N=Cc2ccccc2O)cc1 | > 100 µM | – | > 100 µM | > 100 µM | > 100 µM | > 100 µM | – | > 100 µM | – | > 100 µM | > 100 µM |
| Cn1cc(NC(=O)c2cc(NC(=O)CN=C(N)N)cn2C)cc1C(=O)NCCC(=N)N | > 100 µM | > 100 µM | > 100 µM | > 100 µM | > 100 µM | > 100 µM | > 100 µM | > 100 µM | > 100 µM | > 100 µM | – |
| CCOC(=O)c1cc(C(O)P2(=O)N(CC(C)(C)C)[C@@H]3CCCC[C@H]3N2CC(C)(C)C)cn1C(=O)OC(C)(C)C (stereo partly specified) | > 100 µM | – | 33.6 µM | 29.8 µM | 38.4 µM | – | 27.5 µM | 46.2 µM | 28.7 µM | 26.6 µM | – |
| Cc1cccc(N=NC(=O)NNc2cccc(C)c2C)c1C | 95.7 µM | – | 73.3 µM | 74.8 µM | > 100 µM | – | > 100 µM | > 100 µM | > 100 µM | – | > 100 µM |
| COc1cc(/C=C2/C[C@H]3[C@@H]4CC=C5C[C@@H](O)CC[C@]5(C)[C@H]4CC[C@]3(C)NC2=O)cc(OC)c1OC | 58 µM | > 100 µM | 32.8 µM | > 44.4 µM | 23.4 µM | > 100 µM | > 64.2 µM | > 84.7 µM | > 71.5 µM | 42.3 µM | – |
| COc1ccccc1/C=C1\SC(=S)N(/C=C2\C(=O)Oc3ccccc3C2=O)C1=O | > 100 µM | > 100 µM | 64 µM | – | > 100 µM | 85.3 µM | – | > 100 µM | 62.2 µM | – | 55.6 µM |
| Cc1c(S(=O)(=O)/N=C(\NO)Nc2ccc(Cl)c(Cl)c2)sc2ccc(Cl)cc12 | 25.8 µM | > 100 µM | 42.6 µM | > 100 µM | 58.8 µM | 45.1 µM | 35.8 µM | 45.1 µM | 37.6 µM | 34 µM | – |
| Cc1ccc(/C=C2\CCCc3ccccc3C2=O)cc1 | > 100 µM | 36.5 µM | 34.5 µM | 75 µM | 30.7 µM | 37.5 µM | 39.6 µM | 89.2 µM | > 100 µM | – | > 100 µM |
| COCN(CCC1=CCCCC1)C(=O)OC | > 100 µM | – | > 100 µM | > 100 µM | > 100 µM | – | – | > 100 µM | > 100 µM | > 100 µM | > 100 µM |
| NN/C(=N\S(=O)(=O)c1cc2ccccc2s1)Nc1ccc(Cl)cc1 | 54.4 µM | – | – | 35.6 µM | 37.9 µM | 29.8 µM | 39 µM | 64.6 µM | 37.3 µM | 29.6 µM | 38.7 µM |
| CC12C(=O)CC(CC1=O)C2(C)C | > 100 µM | > 100 µM | > 100 µM | > 100 µM | > 100 µM | – | > 100 µM | > 100 µM | > 100 µM | – | > 100 µM |
